From patent publication US10597375B2, “Halogen-substituted heterocyclic compound” (UBE INDUSTRIES, LTD., priority 2012, dated 2020)

Tests used:
human LPA1 receptor = biological target: T1, human LPA1 receptor (Homo sapiens, UniProt Q92633); assay: Binding test of GTPγS to LPA1 receptor; format: biochemical; settings: membrane fraction of RH 7777 cells expressed with human LPA1 receptor; LPA 100 nM; read-out: IC50: concentration of the test compound which inhibits the binding of LPA1 receptor and [35S]GTPγS by 50%
T1 construct: purchased ChanTest A324; host or cells: RH 7777 cells (recombinant expression; membrane fraction)
T1 sequence (Q92633 whole entry): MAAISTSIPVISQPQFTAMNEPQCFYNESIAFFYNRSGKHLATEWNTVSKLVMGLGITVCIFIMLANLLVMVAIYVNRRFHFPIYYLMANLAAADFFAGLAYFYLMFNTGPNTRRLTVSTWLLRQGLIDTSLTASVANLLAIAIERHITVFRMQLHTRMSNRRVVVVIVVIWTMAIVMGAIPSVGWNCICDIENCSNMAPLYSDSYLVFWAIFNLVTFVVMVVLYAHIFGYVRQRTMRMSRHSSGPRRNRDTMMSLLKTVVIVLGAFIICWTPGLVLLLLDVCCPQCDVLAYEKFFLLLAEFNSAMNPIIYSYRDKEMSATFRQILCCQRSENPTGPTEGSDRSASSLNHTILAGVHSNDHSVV
Method: Binding test of GTPγS to LPA1 receptor
5 μg of the membrane fraction of RH 7777 cells expressed with human LPA1 receptor (A324, ChanTest) was suspended in a reaction buffer (20 mM HEPES, 100 mM NaCl, 10 mM MgCl2, 10 μM GDP, 5 μg saponin, 0.2% BSA, 0.1 nM [^35S]GTPγS (NEG030X, Perkin Elmer), pH 7.4), and the test compound dissolved in DMSO in various concentrations was added. After preincubation at 30° C. for 15 minutes, LPA (L7260, Sigma, the final concentration of 100 nM) was added, and the suspension was incubated at 30° C. for 30 minutes. The membrane fraction was collected onto a glass fiber filter (GF/B, Whatman) by using a cell harvester (M30, Brandel), and washed with a 10 mM phosphate buffer (pH 7.4). The radioactivity of the membrane fraction was measured using a liquid scintillation analyzer (2900TR, Packard) and the concentration of the test compound which inhibits the binding of LPA1 receptor and [^35S]GTPγS by 50%, (1050) was determined by non-linear regression analysis using EXSAS (version 7.6.0, Arm Systex).

[1] = system: A2058 human melanoma cells; assay: Cell migration test (LPA-induced, Chemo-Tx); format: cell-based; settings: LPA 100 nM, 3 hours, read-out: IC50: concentration of the test compound which inhibits the cell migration activity of LPA by 50%
Outline: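 A2058 cells, serum-starved 24 h, pretreated 15 min at 37° C with compound (0.5% DMSO final). Migration over 3 h at 37° C through fibronectin-coated filters toward 100 nM LPA (final). Migrated cells stained, absorbance at 570 nm; IC50 from non-linear regression.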

[2] = system: LPA-induced histamine release; assay: LPA-induced histamine release test in mouse; format: in vivo; settings: male CD1 mice; oral dose of 10 mg/kg; LPA 300 μg/mouse via tail vein 4 hours after administration; blood 2 minutes after LPA; read-out: efficacy rate (rate of individuals which showed the inhibition rate of 80% or more of plasma histamine)
Method: LPA-Induced Histamine Release Test in Mouse
LPA-induced histamine release test in mouse was carried out according to a method by Swaney et al. (The Journal of Pharmacology and Experimental Therapeutics, 336 (2011), pages 693-700). The test compound was suspended in 0.5% methylcellulose solution (133-14255, Wako), and orally administered to male CD1 mice (body weight: 30 to 40 g, supplied by Charles River Laboratories Japan) at a dose of 10 mL/kg. 4 hours after administration, LPA (857130P, Avanti) dissolved in a 0.1% BSA-containing PBS was administered via the tail vein (300 μg/mouse). Immediately, the mouse was anesthetized with isoflurane, and blood was collected via a vein 2 minutes after the administration of LPA. The blood was put into a test tube containing EDTA, and centrifuged at 4° C., 2,000×g, for 10 minutes to obtain the plasma.
The histamine concentration in the plasma was measured by EIA kit (62HTMPEB, Cisbio Bioassays).

Structure (SMILES)	IC50 (human LPA1 receptor) [µM]	IC50 [1] [µM]	responders at 10 mg/kg [2] [%]
CC(OC(=O)Nc1cc(Br)sc1-c1ccc(-c2ccc(C3(C(=O)O)CC3)cc2)cc1)c1ccccc1Cl (racemic) [I-11, (RS)-1-{4′-[5-Bromo-3-({[1-(2-chlorophenyl)ethoxy]carbonyl}amino)thiophen-2-yl]-[1,1′-biphenyl]-4-yl}cyclopropanecarboxylic acid]	≤ 0.2		
C[C@@H](OC(=O)Nc1cc(Cl)sc1-c1ccc(-c2ccc(C3(C(=O)O)CC3)cc2)cc1)c1ccc(F)cc1Cl [I-76, (R)-1-{4′-[5-Chloro-3-({[1-(2-chloro-4-fluorophenyl)ethoxy]carbonyl}amino)thiophen-2-yl]-[1,1′-biphenyl]-4-yl}cyclopropanecarboxylic acid]	≤ 0.2	≤ 0.2	
C[C@@H](OC(=O)Nc1cc(F)sc1-c1ccc(-c2ccc(C3(C(=O)O)CC3)cc2)cc1)c1ccc(F)cc1F [I-140, (R)-1-{4′-[3-({[1-(2,4-Difluorophenyl)ethoxy]carbonyl}amino)-5-fluorothiophen-2-yl]-[1,1′-biphenyl]-4-yl}cyclopropanecarboxylic acid]	≤ 0.2	≤ 0.2	
Cc1cscc1[C@@H](C)OC(=O)Nc1cc(F)sc1-c1ccc(-c2ccc(C3(C(=O)O)CC3)cc2)cc1 [I-650, (R)-1-{4′-[5-Fluoro-3-({[1-(4-methylthiophen-3-yl)ethoxy]carbonyl}amino)thiophen-2-yl]-[1,1′-biphenyl]-4-yl}cyclopropanecarboxylic acid]		≤ 0.2	≥ 50
COc1cc(-c2sc(Cl)cc2NC(=O)O[C@H](C)c2ccsc2)ccc1-c1ccc(C2(C(=O)O)CC2)cc1 [I-780, (R)-1-{4′-[5-Chloro-3-({[1-(thiophen-3-yl)ethoxy]carbonyl}amino)thiophen-2-yl]-2′-methoxy-[1,1′-biphenyl]-4-yl}cyclopropanecarboxylic acid]		≤ 0.2	≥ 50

More lines, main results first:

IC50 (human LPA1 receptor) [µM]	IC50 [1] [µM]	Structure (SMILES)	responders at 10 mg/kg [2] [%]
≤ 0.2	≤ 0.2	CC(OC(=O)Nc1cc(Cl)sc1-c1ccc(-c2ccc(C3(C(=O)O)CC3)cc2)cc1)c1ccccc1Cl (racemic) [I-51, (RS)-1-{4′-[5-Chloro-3-({[1-(2-chlorophenyl)ethoxy]carbonyl}amino)thiophen-2-yl]-[1,1′-biphenyl]-4-yl}cyclopropanecarboxylic acid]	
≤ 0.2	≤ 0.2	C[C@@H](OC(=O)Nc1cc(Cl)sc1-c1ccc(-c2ccc(C3(C(=O)O)CC3)cc2)cc1)c1ccccc1 [I-24, (R)-1-[4′-(5-Chloro-3-{[(1-phenylethoxy)carbonyl]amino}thiophen-2-yl)-[1,1′-biphenyl]-4-yl]cyclopropanecarboxylic acid]	≥ 50
≤ 0.2	≤ 0.2	C[C@@H](OC(=O)Nc1cc(Cl)sc1-c1ccc(-c2ccc(C3(C(=O)O)CC3)cc2)cc1)c1ccccc1F [I-28, (R)-1-{4′-[5-Chloro-3-({[1-(2-fluorophenyl)ethoxy]carbonyl}amino)thiophen-2-yl]-[1,1′-biphenyl]-4-yl}cyclopropanecarboxylic acid]	≥ 50
≤ 0.2	≤ 0.2	C[C@@H](OC(=O)Nc1cc(Cl)sc1-c1ccc(-c2ccc(C3(C(=O)O)CC3)cc2)cc1)c1cccc(F)c1 [I-38, (R)-1-{4′-[5-Chloro-3-({[1-(3-fluorophenyl)ethoxy]carbonyl}amino)thiophen-2-yl]-[1,1′-biphenyl]-4-yl}cyclopropanecarboxylic acid]	≥ 50
≤ 0.2	≤ 0.2	C[C@@H](OC(=O)Nc1cc(Cl)sc1-c1ccc(-c2ccc(C3(C(=O)O)CC3)cc2)cc1)c1ccc(F)cc1 [I-42, (R)-1-{4′-[5-Chloro-3-({[1-(4-fluorophenyl)ethoxy]carbonyl}amino)thiophen-2-yl]-[1,1′-biphenyl]-4-yl}cyclopropanecarboxylic acid]	≥ 50
